The values that follow come from ChEMBL document CHEMBL5033988, “Quinolizidine Alkaloids from Cylicomorpha solmsii” (2021).

Common to all, as to type: functional
Common to all, as to conditions: HCT-116, 72 h, time 3 day

Assay [1] concerns HCT-116. The experiment in a line: Antiproliferative activity against human HCT-116 cells assessed as cell growth inhibition at 0.4 uM after 3 days by ATPlite assay relative to control. Background: Cellular ATP, detected with luciferase, serves as a proxy for viable cell number.
Assay [2] concerns HCT-116. The experiment in a line: Antiproliferative activity against human HCT-116 cells assessed as cell growth inhibition at 10 uM after 3 days by ATPlite assay relative to control.
For assay [3], the system named is HCT-116. The experiment in a line: Antiproliferative activity against human HCT-116 cells assessed as cell growth inhibition at 20 uM after 3 days by ATPlite assay relative to control.
The test system of assay [4] is HCT-116. The experiment in a line: Antiproliferative activity against human HCT-116 cells assessed as cell growth inhibition at 1 uM after 3 days by ATPlite assay relative to control.

For the compound `COc1ccc(C(=O)O[C@@H]2CC[C@@H]3CCC[C@H](CC(=O)O)N3[C@H]2C)c(OC)c1`, the inhibition at 0.4 µM with HCT-116 [1] was -6.1%. Also, the inhibition at 10 µM in the assay with HCT-116 [2] is -4.7%. Moreover, in the assay on HCT-116 [3], the inhibition at 20 µM was -3.2%. In the assay on HCT-116 [4], the inhibition at 1 µM was -8%.
The matching figures for `COc1ccc(/C=C/C(=O)O[C@@H]2CC[C@@H]3CCC[C@H](CC(=O)O)N3[C@H]2C)cc1`: -6.1%, 62.3%, 80.2% and 0.9%.
The matching figures for `C[C@H]1[C@H](OC(=O)/C=C/c2ccccc2)CC[C@@H]2CCC[C@H](CC(=O)O)N21`: -3.6%, -4.2%, 0.7% and -7.8%.
As for `C[C@H]1[C@H](OC(=O)c2ccccc2)CC[C@@H]2CCC[C@H](CC(=O)O)N21`, the inhibition at 0.4 µM in the assay with HCT-116 [1] was -12.8%. Also, in the assay on HCT-116 [2], the inhibition at 10 µM is -10.2%. In addition, in the assay on HCT-116 [3], the inhibition at 20 µM is -6.2%. Besides, in the assay on HCT-116 [4], the inhibition at 1 µM was -4.3%.
On the same counts, the results for `COc1cccc2c1C(=O)c1c(O)c3c(c(O)c1C2=O)C[C@@](O)(C(=O)CO)C[C@@H]3O[C@H]1C[C@H](N)[C@H](O)[C@H](C)O1` [DOXORUBICIN] are 84.5%, 91.1%, 91.7% and 96.3%.
On the same counts, the results for `COc1ccc(C(=O)O[C@@H]2CC[C@@H]3CCC[C@H](CC(=O)O)N3[C@H]2C)cc1OC` are -3.6%, -6.4%, -13.1% and -5.5%.

A word on the inhibition: it is the relative decrease from the control value, in per cent.
